According to patent US9012655B2, “Antimicrobial/adjuvant compounds and methods” (Denouamed, Inc., priority 2011, dated 2015):
≈ marks a conversion by molar mass, not a printed value.

What was measured:
AcpS enzyme = AcpS enzyme (Escherichia coli, UniProt P24224); assay: Measurement of AcpS inhibition ([3H]acetyl-CoA incorporation into apo-ACP); assay type: biochemical; conditions: % activity vs blank-subtracted counts; for activity at 50 µM: test compound 50 uM; for remaining activity at 500 µM: test compound 500 uM
Procedure, shortened: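 Acetyl transfer from [3H]acetyl-CoA (labelled stock mixed with unlabelled acetyl-CoA) onto apo-ACP by E. coli AcpS at RT, started with substrate; aliquots TCA-precipitated at time points up to 60 min. Pellet radioactivity by scintillation; results as % activity of blank-subtracted substrate counts.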

[1] = system: Methicillin-Resistant Staph. aureus (MRSA); assay: MIC, NCCLS M7-A6 broth microdilution, MRSA; assay type: cell-based; conditions: Staphylococcus aureus, MRSA, 16 to 20 h, 35 degrees Celsius
Procedure, shortened: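 Broth microdilution per NCCLS M7-A6 in cation-adjusted Mueller-Hinton broth, doubling dilutions, inoculum 5×10^5 CFU/mL, DMSO controls included. Read after 16–20 h at 35 °C in ambient air; MIC is lowest concentration preventing visible growth.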

Bacillus cereus NCTC6349 = assay: MIC panel of challenge pathogens (CLSI); assay type: cell-based; conditions: Bacillus cereus NCTC6349; for MIC: read-out: 100% inhibition; for MIC50: read-out: MIC50 (50%); for MIC80: read-out: MIC80 (80%)
Experimental: (§1) The inocula for each bacterial strain were prepared by picking 5-10 distinct colonies from the culture plates and suspending them in the appropriate broth as per Clinical and Laboratory Standards Institute (CLSI) guidelines M07-A8, M24-A or M11-A7 as appropriate. The inoculum was resuspended by vigorous shaking on a vortex mixer for 15 s. The turbidity was then adjusted to McFarland standard 0.5 ([…]). The inoculum was further diluted in the appropriate media for MIC tests to give a final inoculum in each well of 2-8×10^5 CFU/ml. MICs were tested in the appropriate broth in accordance with the appropriate CLSI guidelines.
(§2) A stock solution of each compound was prepared at a concentration of 1.28 g/L in DMSO. The stock was further diluted in the appropriate media to give a top starting concentration of 128 mg/L in the assay. 100 μL of the appropriate media, as per CLSI guidelines, was dispensed into each well in columns 2-12. 200 μL of the each compound solution (at 256 mg/L) was dispensed into each well in column 1. 100 μL aliquots were pipetted from column 1 wells and dispensed into column 2 with a multichannel pipette (±2% coefficient of variation) thus diluting two-fold. 100 μL samples were then pipetted from column 2 wells and dispensed into column 3. The process was repeated through to column 10. The final 100 μL of diluted drug from column 10 was then discarded. Row 11 acted as a positive control (no compound, but organisms added), Row 12 acted as a negative control (no compound, and no organisms added).
(§3) 100 μL of the appropriate inoculum suspension in the appropriate media, as per CLSI guidelines, was added to the appropriate wells. […] All plates were incubated in the dark under aerobic or anaerobic conditions at 30-37° C. for 24-48 hours, according to the appropriate CLSI guideline. Plates were read visually 24-48 hours post inoculation. Endpoints of 100% inhibition were determined (CLSI interpretation endpoints following visual examination).
(§4) MIC50, MIC80, and 100% inhibition results are reported below in μg/mL in the following Tables, indicating each compound tested against a given species and strain: […]

[2] = system: Enterococcus faecalis ATCC51299; assay: MIC panel of challenge pathogens (CLSI); assay type: cell-based; conditions: Enterococcus faecalis ATCC51299; for MIC: read-out: 100% inhibition; for MIC50: read-out: MIC50 (50%); for MIC80: read-out: MIC80 (80%)
Experimental: as §1, §2, §3, §4

[3] = system: Staphylococcus aureus ATCC43300; assay: MIC panel of challenge pathogens (CLSI); assay type: cell-based; conditions: Staphylococcus aureus ATCC43300; for MIC: read-out: 100% inhibition; for MIC50: read-out: MIC50 (50%); for MIC80: read-out: MIC80 (80%)
Experimental: as §1, §2, §3, §4

[4] = system: Staphylococcus aureus AUR58 7005; assay: MIC panel of challenge pathogens (CLSI); assay type: cell-based; conditions: AUR587005, Staphylococcus aureus AUR58 7005; for MIC: read-out: 100% inhibition; for MIC50: read-out: MIC50 (50%); for MIC80: read-out: MIC80 (80%)
Experimental: as §1, §2, §3, §4

[5] = system: Staphylococcus aureus EUP MRSA002; assay: MIC panel of challenge pathogens (CLSI); assay type: cell-based; conditions: EUPMRSA002, Staphylococcus aureus EUP MRSA002; for MIC: read-out: 100% inhibition; for MIC50: read-out: MIC50 (50%); for MIC80: read-out: MIC80 (80%)
Experimental: as §1, §2, §3, §4

[6] = system: Staphylococcus aureus EUP MRSA004; assay: MIC panel of challenge pathogens (CLSI); assay type: cell-based; conditions: EUPMRSA004, Staphylococcus aureus EUP MRSA004; for MIC: read-out: 100% inhibition; for MIC50: read-out: MIC50 (50%); for MIC80: read-out: MIC80 (80%)
Experimental: as §1, §2, §3, §4

[7] = system: Staphylococcus aureus EUP SAU040; assay: MIC panel of challenge pathogens (CLSI); assay type: cell-based; conditions: EUPSAU040, Staphylococcus aureus EUP SAU040; for MIC: read-out: 100% inhibition; for MIC50: read-out: MIC50 (50%); for MIC80: read-out: MIC80 (80%)
Experimental: as §1, §2, §3, §4

[8] = system: Staphylococcus aureus NRS382; assay: MIC panel of challenge pathogens (CLSI); assay type: cell-based; conditions: Staphylococcus aureus NRS382; for MIC: read-out: 100% inhibition; for MIC50: read-out: MIC50 (50%); for MIC80: read-out: MIC80 (80%)
Experimental: as §1, §2, §3, §4

[9] = system: Staphylococcus aureus EUP MRSA002; assay: MIC panel of challenge pathogens (CLSI), EUP MRSA002; assay type: cell-based; conditions: EUPMRSA002, Staphylococcus aureus EUP MRSA002; for MIC: read-out: 100% inhibition; for MIC50: read-out: MIC50 (50%); for MIC80: read-out: MIC80 (80%)
Experimental: as §1, §2, §3, §4

Chain of AcpS enzyme (P24224 whole entry): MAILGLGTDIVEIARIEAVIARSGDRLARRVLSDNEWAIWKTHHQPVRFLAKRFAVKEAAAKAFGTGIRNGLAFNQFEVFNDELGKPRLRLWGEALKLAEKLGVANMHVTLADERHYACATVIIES

| SMILES | activity at 50 µM (AcpS enzyme) [%] | remaining activity at 500 µM (AcpS enzyme) [%] | MIC [1] [µM] | MIC (Bacillus cereus NCTC6349) [µg/mL] | MIC50 (Bacillus cereus NCTC6349) [µg/mL] | MIC80 (Bacillus cereus NCTC6349) [µg/mL] | MIC [2] [µg/mL] | MIC50 [2] [µg/mL] | MIC80 [2] [µg/mL] | MIC [3] [µg/mL] | MIC50 [3] [µg/mL] | MIC80 [3] [µg/mL] | MIC [4] [µg/mL] | MIC50 [4] [µg/mL] | MIC80 [4] [µg/mL] | MIC [5] [µg/mL] | MIC50 [5] [µg/mL] | MIC80 [5] [µg/mL] | MIC [6] [µg/mL] | MIC50 [6] [µg/mL] | other results |
| --- | --- | --- | --- | --- | --- | --- | --- | --- | --- | --- | --- | --- | --- | --- | --- | --- | --- | --- | --- | --- | --- |
| Clc1ccc(-c2cc(-c3nnn[nH]3)sc2-c2ccc(Cl)cc2)cc1 [DNM0487, 5-(4,5-Bis(4-chlorophenyl)thiophen-2-yl)-1H-tetrazole] | 3.34 | 0.08 | 8 (≈ 2.99 µg/mL) | 0.5 (≈ 1.34 µM) | 0.5 (≈ 1.34 µM) | 0.5 (≈ 1.34 µM) | 2 (≈ 5.36 µM) | 1 (≈ 2.68 µM) | 2 (≈ 5.36 µM) | 1 (≈ 2.68 µM) | 1 (≈ 2.68 µM) | 1 (≈ 2.68 µM) | 1 (≈ 2.68 µM) | 1 (≈ 2.68 µM) | 1 (≈ 2.68 µM) | 2 (≈ 5.36 µM) | 1 (≈ 2.68 µM) | 2 (≈ 5.36 µM) | 2 (≈ 5.36 µM) | 1 (≈ 2.68 µM) | MIC80 [6]: 2 µg/mL (≈ 5.36 µM); MIC [7]: 2 µg/mL (≈ 5.36 µM); MIC50 [7]: 1 µg/mL (≈ 2.68 µM); MIC80 [7]: 1 µg/mL (≈ 2.68 µM); MIC [8]: 1 µg/mL (≈ 2.68 µM); MIC50 [8]: 1 µg/mL (≈ 2.68 µM); MIC80 [8]: 1 µg/mL (≈ 2.68 µM); MIC [9]: 1 µg/mL (≈ 2.68 µM); MIC50 [9]: 1 µg/mL (≈ 2.68 µM); MIC80 [9]: 1 µg/mL (≈ 2.68 µM) |
| Cc1cc(Cl)ccc1-c1cc(-c2nnn[nH]2)sc1-c1ccc(Cl)cc1C [DNM0488, 5-(4,5-Bis(4-chloro-2-methylphenyl)thiophen-2-yl)-1H-tetrazole] | 11.5 | 0.32 | 4 (≈ 1.61 µg/mL) | ≤ 0.25 | ≤ 0.25 | ≤ 0.25 | 0.5 (≈ 1.25 µM) | 0.5 (≈ 1.25 µM) | 0.5 (≈ 1.25 µM) | 0.5 (≈ 1.25 µM) | 0.5 (≈ 1.25 µM) | 0.5 (≈ 1.25 µM) | 1 (≈ 2.49 µM) | 0.5 (≈ 1.25 µM) | 0.5 (≈ 1.25 µM) | 1 (≈ 2.49 µM) | 0.5 (≈ 1.25 µM) | 1 (≈ 2.49 µM) | 0.5 (≈ 1.25 µM) | 0.5 (≈ 1.25 µM) | MIC80 [6]: 0.5 µg/mL (≈ 1.25 µM); MIC [7]: 0.5 µg/mL (≈ 1.25 µM); MIC50 [7]: 0.5 µg/mL (≈ 1.25 µM); MIC80 [7]: 0.5 µg/mL (≈ 1.25 µM); MIC [8]: 0.5 µg/mL (≈ 1.25 µM); MIC50 [8]: 0.5 µg/mL (≈ 1.25 µM); MIC80 [8]: 0.5 µg/mL (≈ 1.25 µM); MIC [9]: 0.5 µg/mL (≈ 1.25 µM); MIC50 [9]: 0.5 µg/mL (≈ 1.25 µM); MIC80 [9]: 0.5 µg/mL (≈ 1.25 µM) |
| Cc1ccc(Cl)cc1-c1cc(-c2nnn[nH]2)sc1-c1cc(Cl)ccc1C [DNM0508, 5-(4,5-Bis(5-chloro-2-methylphenyl)thiophen-2-yl)-1H-tetrazole] | 44.9 | 0.1 | 4 (≈ 1.61 µg/mL) | 0.5 (≈ 1.25 µM) | 0.5 (≈ 1.25 µM) | 0.5 (≈ 1.25 µM) | 2 (≈ 4.98 µM) | 2 (≈ 4.98 µM) | 2 (≈ 4.98 µM) | 1 (≈ 2.49 µM) | 1 (≈ 2.49 µM) | 1 (≈ 2.49 µM) | 1 (≈ 2.49 µM) | 1 (≈ 2.49 µM) | 1 (≈ 2.49 µM) | 1 (≈ 2.49 µM) | 0.5 (≈ 1.25 µM) | 1 (≈ 2.49 µM) | 1 (≈ 2.49 µM) | 1 (≈ 2.49 µM) | MIC80 [6]: 1 µg/mL (≈ 2.49 µM); MIC [7]: 1 µg/mL (≈ 2.49 µM); MIC50 [7]: 1 µg/mL (≈ 2.49 µM); MIC80 [7]: 1 µg/mL (≈ 2.49 µM); MIC [8]: 1 µg/mL (≈ 2.49 µM); MIC50 [8]: 1 µg/mL (≈ 2.49 µM); MIC80 [8]: 1 µg/mL (≈ 2.49 µM); MIC [9]: 1 µg/mL (≈ 2.49 µM); MIC50 [9]: 1 µg/mL (≈ 2.49 µM); MIC80 [9]: 1 µg/mL (≈ 2.49 µM) |
